{"source": "PubChem BioAssay AID1053177", "about": "(The Scripps Research Institute Molecular Screening Center, 2014)", "note": "Active and inactive are the calls of the source.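 The calls were made as follows: active = EC50 of 10 µM or lower; inactive = EC50 above 10 µM.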", "data": [{"biological_target": "Trace amine-associated receptor 1 (Homo sapiens) (UniProt Q96RJ0)", "sequence (Q96RJ0 whole entry, looked up, the tested form may be a part)": "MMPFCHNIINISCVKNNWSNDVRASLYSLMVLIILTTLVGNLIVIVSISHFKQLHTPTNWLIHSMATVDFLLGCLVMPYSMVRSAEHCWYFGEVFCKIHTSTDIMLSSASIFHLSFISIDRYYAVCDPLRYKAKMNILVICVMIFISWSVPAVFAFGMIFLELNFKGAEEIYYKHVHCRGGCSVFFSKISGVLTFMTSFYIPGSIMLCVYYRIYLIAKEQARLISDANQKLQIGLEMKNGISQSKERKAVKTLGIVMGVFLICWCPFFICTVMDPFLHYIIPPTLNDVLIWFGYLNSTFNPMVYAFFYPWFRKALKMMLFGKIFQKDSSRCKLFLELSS", "test": "TAAR1 agonists raising cellular cAMP, late-stage follow-up, cell-based, fluorescence, human, MDRUN002 (AID 1053177)", "details": "CHO TAAR1-HGA16 cells, cAMP TR-FRET, agonist", "values": [{"smiles": "Cc1ccc(C(=O)CCN2CCC(c3ccccc3)C2)cc1", "note": "(configuration not stated)", "EC50": "335 nM"}, {"smiles": "COc1cc(C(=O)CCN2CCC(c3ccccc3)C2)cc(OC)c1OC", "note": "(configuration not stated)", "EC50": "131 nM"}, {"smiles": "N#Cc1c(C(F)(F)F)cc(-c2ccc(Cl)cc2)nc1SCC(=O)N1CCCC1", "EC50": "> 37400 nM (inactive)"}, {"smiles": "N#Cc1c(C(F)(F)F)cc(-c2ccc(Cl)cc2)nc1SCC(=O)Nc1ncccn1", "EC50": "> 37400 nM (inactive)"}, {"smiles": "CC(CN1CCCC1Cc1ccccc1)C(=O)c1ccc2c(c1)OCCO2", "note": "(configuration not stated)", "EC50": "438 nM"}, {"smiles": "O=C(CCN1CCC(c2ccccc2)C1)c1ccccc1", "note": "(configuration not stated)", "EC50": "97.3 nM"}, {"smiles": "N#Cc1c(C(F)(F)F)cc(-c2ccc(Cl)cc2)nc1SCC(=O)N1CCCCCC1", "EC50": "> 37400 nM (inactive)"}]}]}
